From US6355799B1, “Substituted benzene compounds, process for their preparation, and herbicidal and defoliant compositions containing them” (ISK Americas Incorporated, priority 1997, dated 2002)

Experiments:
Format in all cases: in vivo
[1] = system: redroot pigweed (Amaranthus retroflexus, AMARE); assay: Pre-emerge test, greenhouse herbicide activity screening; conditions: phytotoxicity rating 0-100, 14 days after application
How it was run: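 Herbicidal damage is scored 0 (none) to 100 (complete plant death) two weeks after a simulated field spray. Rates span 15–1000 g ai/ha, delivered in acetone at 187 l/ha. For post-emergence treatments, plants have 2–3 leaves and the spray carries 0.25% v/v non-ionic surfactant.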

[2] = system: barnyardgrass (Echinochloa crus-galli, ECHCG); assay: as above; conditions: phytotoxicity rating 0-100, 14 days after application
How it was run: (§1)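 Compounds in acetone were track-sprayed at 15–1000 g ai/ha: pre-emergence onto soil sown the previous day, then top-watered to incorporate and later bottom-watered; post-emergence onto 2–3 leaf plants with 0.25% v/v surfactant, bottom-watered only. Ratings on a 0–100 phytotoxicity scale were taken at day 14.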

[3] = system: green foxtail (Setaria viridis, SETVI); assay: as above; conditions: phytotoxicity rating 0-100, 14 days after application
How it was run: as §1

[4] = system: ivyleaf morningglory (Ipomoea hederacea, IPOHE); assay: as above; conditions: phytotoxicity rating 0-100, 14 days after application
How it was run: as §1

[5] = system: johnsongrass (Sorghum halepense, SORHA); assay: as above; conditions: phytotoxicity rating 0-100, 14 days after application
How it was run: as §1

[6] = system: lambsquarters (Chenopodium album, CHEAL); assay: as above; conditions: phytotoxicity rating 0-100, 14 days after application
How it was run: as §1

[7] = system: large crabgrass (Digitaria sanguinalis, DIGSA); assay: as above; conditions: phytotoxicity rating 0-100, 14 days after application
How it was run: as §1

[8] = system: sicklepod (Cassia obtusifolia, CASOB); assay: as above; conditions: phytotoxicity rating 0-100, 14 days after application
How it was run: as §1

[9] = system: velvetleaf (Abutilon theophrasti, ABUTH); assay: as above; conditions: phytotoxicity rating 0-100, 14 days after application
How it was run: as §1

[10] = system: field corn (Zea mays L., var. Dekalb 535, CORN); assay: Pre-emerge test, crop safety; conditions: crop damage rating 0-100, 14 days after application
How it was run: (§2)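 Plants grown in 10 cm pots of sandy loam mix received acetone-dissolved compounds through a moving flat-fan nozzle. Doses ranged from 15 to 1000 g ai/ha. Pre-emerge pots were seeded one day earlier, post-emerge pots 8–21 days earlier. Fourteen days on, each pot was graded 0–100 for damage.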

[11] = system: upland rice (Oryza sp., var. Tebonnet, RICE); assay: Pre-emerge test, crop safety; conditions: crop damage rating 0-100, 14 days after application
How it was run: as §2

[12] = system: green foxtail (Setaria viridis, SETVI); assay: Post-emerge test, greenhouse herbicide activity screening; conditions: post-emerge, 14 days after application, rating scale 0-100
How it was run: (§3)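 Fourteen days after spraying, crop and weed injury was graded visually from 0, no effect, to 100, every plant dead. Test substances were dissolved in acetone and applied at 15–1000 g ai/ha with a flat-fan nozzle. Application was either pre-emergence, one day after sowing, or post-emergence at the 2–3 leaf stage.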

[13] = system: ivyleaf morningglory (Ipomoea hederacea, IPOHE); assay: as above; conditions: post-emerge, 14 days after application, rating scale 0-100
How it was run: as §3

[14] = system: johnsongrass (Sorghum halepense, SORHA); assay: as above; conditions: post-emerge, 14 days after application, rating scale 0-100
How it was run: as §3

[15] = system: lambsquarters (Chenopodium album, CHEAL); assay: as above; conditions: post-emerge, 14 days after application, rating scale 0-100
How it was run: as §3

[16] = system: large crabgrass (Digitaria sanguinalis, DIGSA); assay: as above; conditions: post-emerge, 14 days after application, rating scale 0-100
How it was run: as §3

[17] = system: redroot pigweed (Amaranthus retroflexus, AMARE); assay: as above; conditions: post-emerge, 14 days after application
How it was run: as §3

[18] = system: sicklepod (Cassia obtusifolia, CASOB); assay: as above; conditions: post-emerge, 14 days after application, rating scale 0-100
How it was run: as §3

[19] = system: velvetleaf (Abutilon theophrasti, ABUTH); assay: as above; conditions: post-emerge, 14 days after application, rating scale 0-100
How it was run: as §3

[20] = system: field corn (Zea mays L., var. Dekalb 535, CORN); assay: Post-emerge test, crop safety; conditions: post-emerge, 14 days after application, rating scale 0-100
How it was run: (§4)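 Rating: 0–100 visual injury, 14 DAA. Application: acetone, 187 l/ha, 15–1000 g ai/ha, flat-fan track sprayer with nozzle 40–45 cm above soil or canopy. Post-emerge runs used 0.25% v/v surfactant on 2–3 leaf plants.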

[21] = system: upland rice (Oryza sp., var. Tebonnet, RICE); assay: Post-emerge test, crop safety; conditions: post-emerge, 14 days after application, rating scale 0-100
How it was run: as §4

[22] = 63 g ai/ha, rating scale 0-100 (0 no damage, 100 complete death)
[23] = 250 g ai/ha, rating scale 0-100

COc1c(Cl)cc(F)c(-n2c(=O)cc(C(F)(F)F)n(C)c2=O)c1NC(=O)OCc1c(Cl)cccc1Cl [4-24]
Pre-emerge Herbicidal Activity AMARE ([1]; 63 g ai/ha): 100
Pre-emerge Herbicidal Activity AMARE ([1]; 250 g ai/ha): 100
Pre-emerge Herbicidal Activity ECHCG ([2]; 63 g ai/ha): 10
Pre-emerge Herbicidal Activity ECHCG ([2]; 250 g ai/ha): 50
Pre-emerge Herbicidal Activity SETVI ([3]; 63 g ai/ha): 90
Pre-emerge Herbicidal Activity SETVI ([3]; 250 g ai/ha): 100
Pre-emerge Herbicidal Activity IPOHE ([4]; 63 g ai/ha): 20
Pre-emerge Herbicidal Activity IPOHE ([4]; 250 g ai/ha): 30
Pre-emerge Herbicidal Activity SORHA ([5]; 63 g ai/ha): 10
Pre-emerge Herbicidal Activity SORHA ([5]; 250 g ai/ha): 40
Pre-emerge Herbicidal Activity CHEAL ([6]; 63 g ai/ha): 100
Pre-emerge Herbicidal Activity CHEAL ([6]; 250 g ai/ha): 100
Pre-emerge Herbicidal Activity DIGSA ([7]; 63 g ai/ha): 30
Pre-emerge Herbicidal Activity DIGSA ([7]; 250 g ai/ha): 70
Pre-emerge Herbicidal Activity CASOB ([8]; 63 g ai/ha): 0
Pre-emerge Herbicidal Activity CASOB ([8]; 250 g ai/ha): 80
Pre-emerge Herbicidal Activity ABUTH ([9]; 63 g ai/ha): 50
Pre-emerge Herbicidal Activity ABUTH ([9]; 250 g ai/ha): 100
Pre-emerge Herbicidal Activity CORN ([10]; 63 g ai/ha): 0
Pre-emerge Herbicidal Activity CORN ([10]; 250 g ai/ha): 5
Pre-emerge Herbicidal Activity RICE ([11]; 63 g ai/ha): 10
Pre-emerge Herbicidal Activity RICE ([11]; 250 g ai/ha): 50
phytotoxicity rating SETVI ([12]; 63 g ai/ha): 50
phytotoxicity rating SETVI ([12]; 250 g ai/ha): 80
phytotoxicity rating IPOHE ([13]; 63 g ai/ha): 100
phytotoxicity rating IPOHE ([13]; 250 g ai/ha): 100
phytotoxicity rating SORHA ([14]; 63 g ai/ha): 40
phytotoxicity rating SORHA ([14]; 250 g ai/ha): 60
phytotoxicity rating CHEAL ([15]; 63 g ai/ha): 100
phytotoxicity rating CHEAL ([15]; 250 g ai/ha): 100
phytotoxicity rating DIGSA ([16]; 63 g ai/ha): 40
phytotoxicity rating DIGSA ([16]; 250 g ai/ha): 50
phytotoxicity rating AMARE [17, 22]: 100
phytotoxicity rating AMARE [17, 23]: 100
phytotoxicity rating CASOB ([18]; 63 g ai/ha): 70
phytotoxicity rating CASOB ([18]; 250 g ai/ha): 100
phytotoxicity rating ABUTH ([19]; 63 g ai/ha): 100
phytotoxicity rating ABUTH ([19]; 250 g ai/ha): 100
phytotoxicity rating CORN (crop damage) ([20]; 63 g ai/ha): 35
phytotoxicity rating CORN (crop damage) ([20]; 250 g ai/ha): 70
phytotoxicity rating RICE (crop damage) ([21]; 63 g ai/ha): 20
phytotoxicity rating RICE (crop damage) ([21]; 250 g ai/ha): 45

COc1c(Cl)cc(F)c(-n2c(=O)cc(C(F)(F)F)n(C)c2=O)c1NC(=O)Oc1c(C)cc(C)cc1C [4-25]
Pre-emerge Herbicidal Activity AMARE ([1]; 63 g ai/ha): 30
Pre-emerge Herbicidal Activity AMARE ([1]; 250 g ai/ha): 100
Pre-emerge Herbicidal Activity ECHCG ([2]; 63 g ai/ha): 0
Pre-emerge Herbicidal Activity ECHCG ([2]; 250 g ai/ha): 0
Pre-emerge Herbicidal Activity SETVI ([3]; 63 g ai/ha): 0
Pre-emerge Herbicidal Activity SETVI ([3]; 250 g ai/ha): 50
Pre-emerge Herbicidal Activity IPOHE ([4]; 63 g ai/ha): 0
Pre-emerge Herbicidal Activity IPOHE ([4]; 250 g ai/ha): 0
Pre-emerge Herbicidal Activity SORHA ([5]; 63 g ai/ha): 0
Pre-emerge Herbicidal Activity SORHA ([5]; 250 g ai/ha): 0
Pre-emerge Herbicidal Activity CHEAL ([6]; 63 g ai/ha): 60
Pre-emerge Herbicidal Activity CHEAL ([6]; 250 g ai/ha): 100
Pre-emerge Herbicidal Activity DIGSA ([7]; 63 g ai/ha): 0
Pre-emerge Herbicidal Activity DIGSA ([7]; 250 g ai/ha): 10
Pre-emerge Herbicidal Activity CASOB ([8]; 63 g ai/ha): 0
Pre-emerge Herbicidal Activity CASOB ([8]; 250 g ai/ha): 20
Pre-emerge Herbicidal Activity ABUTH ([9]; 63 g ai/ha): 0
Pre-emerge Herbicidal Activity ABUTH ([9]; 250 g ai/ha): 60
Pre-emerge Herbicidal Activity CORN ([10]; 63 g ai/ha): 0
Pre-emerge Herbicidal Activity CORN ([10]; 250 g ai/ha): 0
Pre-emerge Herbicidal Activity RICE ([11]; 63 g ai/ha): 0
Pre-emerge Herbicidal Activity RICE ([11]; 250 g ai/ha): 0
phytotoxicity rating SETVI ([12]; 63 g ai/ha): 20
phytotoxicity rating SETVI ([12]; 250 g ai/ha): 30
phytotoxicity rating IPOHE ([13]; 63 g ai/ha): 40
phytotoxicity rating IPOHE ([13]; 250 g ai/ha): 60
phytotoxicity rating SORHA ([14]; 63 g ai/ha): 0
phytotoxicity rating SORHA ([14]; 250 g ai/ha): 10
phytotoxicity rating CHEAL ([15]; 63 g ai/ha): 75
phytotoxicity rating CHEAL ([15]; 250 g ai/ha): 85
phytotoxicity rating DIGSA ([16]; 63 g ai/ha): 0
phytotoxicity rating DIGSA ([16]; 250 g ai/ha): 0
phytotoxicity rating AMARE [17, 22]: 70
phytotoxicity rating AMARE [17, 23]: 100
phytotoxicity rating CASOB ([18]; 63 g ai/ha): 20
phytotoxicity rating CASOB ([18]; 250 g ai/ha): 30
phytotoxicity rating ABUTH ([19]; 63 g ai/ha): 70
phytotoxicity rating ABUTH ([19]; 250 g ai/ha): 95
phytotoxicity rating CORN (crop damage) ([20]; 63 g ai/ha): 5
phytotoxicity rating CORN (crop damage) ([20]; 250 g ai/ha): 15
phytotoxicity rating RICE (crop damage) ([21]; 63 g ai/ha): 0
phytotoxicity rating RICE (crop damage) ([21]; 250 g ai/ha): 20
